Measurements reported in PMC3527430, “Total Synthesis of Septocylindrin B and C-Terminus Modified Analogues” (PLoS ONE, 2012).
Like-named read-outs stand apart in the source and are kept apart here. Square brackets hold non-standard residues; d marks the D form. Peptide text beside a SMILES is read from it. * marks the point of attachment. X2 = CCCCCCNC[C@H](Cc1ccccc1)N*; X3 = OCCCCCNC[C@H](Cc1ccccc1)N*; X1 = OCCNC[C@H](Cc1ccccc1)N*; Aib = CC(C)(N)C(=O)O

Experiments:
Staphylococcus aureus [1] = type: cell-based
Method: (§1) All these peptides were tested for their antibacterial activity using standard minimal inhibitory concentration (MIC) assays exactly as described in Mattheus et al. […] They are identical except for the glutamine residues, which are replaced with methyl protected glutamic acid residues in ABCD-Phaol. Although ABCD-Phaol should be a functionally reliable model of its natural counterpart, the difference in activity can only be explained by the different interaction with the membrane of the amino acid residue side chains. The amide interaction positively influences activity, so the conversion of Glu(OMe) to Gln improves the activity.

Bacillus subtilis = type: cell-based
Method: as §1

Bacillus cereus = type: cell-based
Method: as §1

Enterococcus faecalis = type: cell-based
Method: as §1

[2] = system: Bacillus cereus, Bacillus subtilis, Enterococcus faecalis, Staphylococcus aureus; assay: Antibacterial activity, MIC assays, overall statement on the bacteria tested; type: cell-based; conditions: standard MIC assays; four bacteria tested
Method: as §1

Staphylococcus aureus [3] = conditions: natural Septocylindrin B; ref [1]; cited from earlier work
Description: Table 1 Antibacterial activity (MIC, µM) of Septocylindrin B and selected analogues. ^a | column: Staphylococcus aureus

[4] = standard MIC assay as described in Mattheus et al. [13], cell holds only footnote mark d
[5] = standard MIC assay as described in Mattheus et al. [13]

Row | Molecule | Antibacterial activity (MIC) Staphylococcus aureus (Staphylococcus aureus [1]; [4]) | Antibacterial activity (MIC) Bacillus subtilis (Bacillus subtilis) [µM] | Antibacterial activity (MIC) Bacillus cereus (Bacillus cereus) [µM] | Antibacterial activity (MIC) Enterococcus faecalis (Enterococcus faecalis) [µM] | Antibacterial activity (MIC) Staphylococcus aureus (Staphylococcus aureus [1]) [µM] | Antibacterial activity, result in words [2] | Antibacterial activity (MIC) Staphylococcus aureus (Staphylococcus aureus [3]) [µM] | Antibacterial activity (MIC) Bacillus subtilis (Bacillus subtilis; [5]) [µM] | Antibacterial activity (MIC) Bacillus cereus (Bacillus cereus; [5]) [µM] | Antibacterial activity (MIC) Enterococcus faecalis (Enterococcus faecalis; [5]) [µM]
1 | COC(=O)CC[C@H](NC(=O)[C@H](C)NC(=O)C(C)(C)NC(=O)[C@H](C)NC(=O)C(C)(C)NC(=O)[C@@H]1CCCN1C(=O)C(C)(C)NC(C)=O)C(=O)NC(C)(C)C(=O)N[C@H](C(=O)NC(C)(C)C(=O)NCC(=O)N[C@@H](CC(C)C)C(=O)NC(C)(C)C(=O)N1CCC[C@H]1C(=O)N[C@H](C(=O)NC(C)(C)C(=O)NC(C)(C)C(=O)N[C@@H](CCC(=O)OC)C(=O)N[C@@H](CCC(=O)OC)C(=O)N[C@H](CNCCCCCO)Cc1ccccc1)C(C)C)C(C)C [ABCD-Phaol-N5O, Ac-Aib1-Pro2-Aib3-Ala4-Aib5-Ala6-Glu(OMe)7-Aib8-Val9-Aib10-Gly11-Leu12-Aib13-Pro14-Val15-Aib16-Aib17-Glu(OMe)18-Glu(OMe)19-Phaol20-N5O] (Ac-[Aib]P[Aib]A[Aib]AE(OMe)[Aib]V[Aib]GL[Aib]PV[Aib][Aib]E(OMe)E(OMe)-X3) | ^d (A reduced growth is clearly visible, but no MIC end point ≤100 µM) | >100 | 50 | 1.5 |  |  |  |  |  | 
2 | CCCCCCNC[C@H](Cc1ccccc1)NC(=O)[C@H](CCC(=O)OC)NC(=O)[C@H](CCC(=O)OC)NC(=O)C(C)(C)NC(=O)C(C)(C)NC(=O)[C@@H](NC(=O)[C@@H]1CCCN1C(=O)C(C)(C)NC(=O)[C@H](CC(C)C)NC(=O)CNC(=O)C(C)(C)NC(=O)[C@@H](NC(=O)C(C)(C)NC(=O)[C@H](CCC(=O)OC)NC(=O)[C@H](C)NC(=O)C(C)(C)NC(=O)[C@H](C)NC(=O)C(C)(C)NC(=O)[C@@H]1CCCN1C(=O)C(C)(C)NC(C)=O)C(C)C)C(C)C [ABCD-Phaol-N6, Ac-Aib1-Pro2-Aib3-Ala4-Aib5-Ala6-Glu(OMe)7-Aib8-Val9-Aib10-Gly11-Leu12-Aib13-Pro14-Val15-Aib16-Aib17-Glu(OMe)18-Glu(OMe)19-Phaol20-N6] (Ac-[Aib]P[Aib]A[Aib]AE(OMe)[Aib]V[Aib]GL[Aib]PV[Aib][Aib]E(OMe)E(OMe)-X2) |  | >100 | >100 | 25 | >100 |  |  |  |  | 
3 | COC(=O)CC[C@H](NC(=O)[C@H](C)NC(=O)C(C)(C)NC(=O)[C@H](C)NC(=O)C(C)(C)NC(=O)[C@@H]1CCCN1C(=O)C(C)(C)NC(C)=O)C(=O)NC(C)(C)C(=O)N[C@H](C(=O)NC(C)(C)C(=O)NCC(=O)N[C@@H](CC(C)C)C(=O)NC(C)(C)C(=O)N1CCC[C@H]1C(=O)N[C@H](C(=O)NC(C)(C)C(=O)NC(C)(C)C(=O)N[C@@H](CCC(=O)OC)C(=O)N[C@@H](CCC(=O)OC)C(=O)N[C@H](CNCCO)Cc1ccccc1)C(C)C)C(C)C [ABCD-Phaol] (Ac-[Aib]P[Aib]A[Aib]AE(OMe)[Aib]V[Aib]GL[Aib]PV[Aib][Aib]E(OMe)E(OMe)-X1) |  | >50 | >50 | 6 | >50 |  |  |  |  | 
4 | CC(=O)NC(C)(C)C(=O)N1CCC[C@H]1C(=O)NC(C)(C)C(=O)N[C@@H](C)C(=O)NC(C)(C)C(=O)N[C@@H](C)C(=O)N[C@@H](CCC(N)=O)C(=O)NC(C)(C)C(=O)N[C@H](C(=O)NC(C)(C)C(=O)NCC(=O)N[C@@H](CC(C)C)C(=O)NC(C)(C)C(=O)N1CCC[C@H]1C(=O)N[C@H](C(=O)NC(C)(C)C(=O)NC(C)(C)C(=O)N[C@@H](CCC(N)=O)C(=O)N[C@@H](CCC(N)=O)C(=O)N[C@H](CNCCO)Cc1ccccc1)C(C)C)C(C)C [Septocylindrin B synthetic] (Ac-[Aib]P[Aib]A[Aib]AQ[Aib]V[Aib]GL[Aib]PV[Aib][Aib]QQ-X1) |  | 12.5 | 6.25 | 6.25 | 12.5 | activity against all four bacteria tested | 8 |  |  | 
5 | Ac-Aib1-Pro2-Aib3-Ala4-Aib5-Ala6-Glu(OMe)7-Aib8-Val9-Aib10-Gly11-Leu12-Aib13-Pro14-Val15-Aib16-Aib17-Glu(OMe)18-Glu(OMe)19- Phe20-ethanolamine [ABCD-Phe-ethanolamine] | ^d (A reduced growth is clearly visible, but no MIC end point ≤100 µM) |  |  |  |  |  |  | >100 | 100 | 6
